Laboratory results: patent publication US10807948B2, “Aromatic compounds and uses thereof” (PELOTON THERAPEUTICS, INC., priority 2015, dated 2020)
“Also recorded” adds a separate entry of the source.

Assays:
[1] = target: T1, HIF-2α HIS TAG-PASB Domain (Homo sapiens, UniProt Q99814); assay: HIF-2α Scintillation Proximity Assay (SPA); format: binding; conditions: displacement of tritiated probe from HIF-2α PASB domain
T1 construct: 100 nM HIF-2α HIS TAG-PASB Domain
Procedure: The total assay volume was about 100 μL in the following configuration: 2 μL compound in 100% DMSO, 88 μL buffer with protein and probe and 10 μL of SPA beads. […] The percent inhibition was determined and IC50 values were calculated using the Dotmatics system based on the following equation: % inhibition=[(high control−sample)/(high control−low control)]×100.

786-O-Hif-Luc cells = assay: Luciferase Assay; format: cell-based; conditions: about 24 hours
Procedure: 786-O-Hif-Luc single clone cells were obtained by infecting 786-O cells (ATCC® CRL-1932™) with commercial lentivirus that delivers a luciferase gene driven by multiple HIF responsive elements (Cignal Lenti HIF Reporter (luc): CLS-007L, Qiagen) at Multiplicity of Infection (MOI) of 25 for 24 hours. […] A pool of infected cells were then selected against 2 μg/mL of puromycin (P8833, Sigma) for 10 days followed by limited dilution to select single clones. […] For the luciferase assay, about 7500 786-O-Hif-Luc cells in 90 μL growth medium were seeded into each well of a 96-well white opaque plate (08-771-26, Fisher scientific) a day before treatment with the layout presented in FIG. 5.
Each concentration was tested in triplicate. After about 24 hours, luciferase activity was determined using ONE-Glo Luciferase Assay Reagent (E6110, Promega) following the manufacturer's recommended procedure. EC50 were calculated using Dotmatics software.

786-O cells = assay: VEGF ELISA Assay; format: cell-based; conditions: Homo sapiens, 786-0, VEGF concentration in cell culture medium
Procedure: About 7500 786-0 cells in 180 μL of growth medium were seeded into each well of a 96-well, white, clear bottom plate (07-200-566, Fisher Scientific) on day one in the layout presented in FIG. 3.
Each concentration was plated in duplicate. About 20 hours later, medium was removed by suction and each well was supplied with 180 μL of growth medium. About 20 μL freshly-made 10× compound stocks were added to each well. […] The EC50 was calculated by GraphPad Prism using the dose-response-inhibition (four parameter) equation. The cell-seeded plate was then subjected to CellTiter-Glo luminescence cell viability assay (Promega) by adding 50 μL of Celltiter Glo reagent into each well and shaking the plate for 8 minutes at 550 rpm (Thermomixer R, Eppendorf) then the luminescence signal immediately read in a plate reader (3 second delay, 0.5 second/well integration time, Synergy 2 multi Detection Microplate reader).

[2] = system: renal cell carcinoma 786-O xenograft; assay: In vivo efficacy study, 786-O xenograft; set-up: species or system SCID/Biege mouse; conditions: for Tumor size (mm^3) Mean ± SEM: after 28 days of dosing
[3] = system: renal cell carcinoma 786-O xenograft; assay: In vivo PK/PD study: human VEGFA in plasma by ELISA; set-up: species or system SCID/Biege mice; conditions: 3 mg/kg oral gavage, six times at 12 hour intervals
Procedure: (§1) About 5×10^6 renal cell carcinoma 786-O tumor cells (ATCC® CRL-1932™, VHL and HIF-1α null cell line) in PBS and Matrigel (1:1 in volume) were injected subcutaneously at the right flanks of SCID/Biege mice at 6-7 weeks of age for xenograft development. When the xenografts reached about 400 mm^3 in size, the tumor bearing mice were randomly divided into 2 groups (n=3). Plasma was collected prior to treatment by retro-orbital bleeding. The animals were treated with either vehicle or Compound 95 at 3 mg/kg by oral gavage (six times at 12 hour intervals). All animals were sacrificed at 12 hours post last dose. Tumor, kidney, and plasma samples were collected from each animal. Total RNA was extracted from the tumors and kidneys. The mRNA levels of several genes were determined by qRT-PCR (FIG. 1).
The level of human VEGFA was determined by ELISA assay.

[4] = system: renal cell carcinoma 786-O xenograft; assay: In vivo PK/PD study: mRNA levels of genes in tumor by qRT-PCR; set-up: species or system SCID/Biege mice; conditions: 3 mg/kg oral gavage, six times at 12 hour intervals; 12 hours post last dose
Procedure: as §1
Total RNA was extracted from the tumors, and the expressions of putative HIF-1α and HIF-2α regulated genes were determined by qRT-PCR.

T1 sequence (Q99814 239-348): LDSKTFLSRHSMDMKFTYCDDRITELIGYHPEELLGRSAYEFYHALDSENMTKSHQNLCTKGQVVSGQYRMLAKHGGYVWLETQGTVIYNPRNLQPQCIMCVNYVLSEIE

Row | Structure (SMILES) | IC50 [1] [nM] | EC50 (786-O-Hif-Luc cells) [nM] | also measured
1 | N#CC1(COc2ccc(S(=O)(=O)C(F)(F)F)c3c2CC(F)(F)C3O)CC1 (stereo not drawn) [Compound 142] | < 50 | – | –
2 | CS(=O)(=O)c1ccc(OC2CC(F)(F)C2)c2c1[C@H](O)[C@H](F)[C@@H]2F (racemic) [Compound 98, (racemic)-4-(3,3-difluorocyclobutoxy)-2,3-difluoro-7-(methylsulfonyl)-2,3-dihydro-1H-inden-1-ol] | < 50 | – | –
3 | O=S(=O)(CF)c1ccc(OC2CC(F)(F)C2)c2c1[C@H](O)[C@H](F)[C@@H]2F (racemic) [Compound 99, (racemic)-4-(3,3-difluorocyclobutoxy)-2,3-difluoro-7-((fluoromethyl)sulfonyl)-2,3-dihydro-1H-inden-1-ol] | < 50 | – | –
4 | O=S(=O)(c1ccc(OCC2(F)COC2)c2c1[C@H](O)C(F)(F)C2)C(F)(F)F [Compound 94, (S)-2,2-difluoro-4-((3-fluorooxetan-3-yl)methoxy)-7-((trifluoromethyl)sulfonyl)-2,3-dihydro-1H-inden-1-ol] | – | < 50 | –
5 | O=S(=O)(CF)c1ccc(OC2CC(F)(F)C2)c2c1[C@H](O)C(F)(F)[C@@H]2F [Compound 97, (1S,3R)-4-(3,3-difluorocyclobutoxy)-2,2,3-trifluoro-7-((fluoromethyl)sulfonyl)-2,3-dihydro-1H-inden-1-ol] | – | – | EC50 (786-O cells): < 50 nM
6 | CO[C@H]1C[C@H](Oc2ccc(S(=O)(=O)C(F)(F)F)c3c2CC(F)(F)[C@H]3O)C1 [Compound 239] | < 50 | – | –
7 | CS(=O)(=O)c1ccc(OC2CC(F)(F)C2)c2c1[C@H](O)C(F)(F)[C@@H]2F [Compound 95, (1S,3R)-4-(3,3-difluorocyclobutoxy)-2,2,3-trifluoro-7-(methylsulfonyl)-2,3-dihydro-1H-inden-1-ol] | – | – | Tumor size (mm^3) Mean ± SEM ([2]; 1 mg/kg QD): 525.72 mm^3; Tumor size (mm^3) Mean ± SEM ([2]; 3 mg/kg QD): 154.52 mm^3; Tumor size (mm^3) Mean ± SEM ([2]; 10 mg/kg QD): 89.45 mm^3; effect on tumor growth / tumor sizes ([2]; 1, 3 and 10 mg/kg QD for 28 days, single agent): statistically significant reduction of tumor sizes for all treatment groups; also recorded: tumor growth inhibition and regression; human VEGFA plasma level [3]: significant reduction; also recorded: reduced; CCND1 mRNA level in tumor [4]: significant reduction; also recorded: reduced; GLUT1 mRNA level in tumor [4]: significant reduction; also recorded: reduced; PAI-1 mRNA level in tumor [4]: significant reduction; also recorded: reduced; PGK1 mRNA level in tumor (HIF-1α specific target gene) [4]: no significant change; also recorded: no significant effect; VEGFA mRNA level in tumor [4]: significant reduction; also recorded: reduced
8 | N#Cc1cncc(-c2ccc(S(=O)(=O)C(F)(F)F)c3c2CC(F)(F)C3O)c1 (stereo not drawn) [Compound 91] | > 1000 | > 1000 | –

Second part, led by results:

Row | IC50 [1] [nM] | EC50 (786-O-Hif-Luc cells) [nM] | Structure (SMILES) | also measured
9 | > 1000 | – | OC1c2c(OCC(F)F)ccc(C(F)(F)F)c2C(F)C1(F)F (stereo not drawn) [Compound 215] | –
10 | 50 to 249 | 50 to 249 | OC1c2c(C(F)(F)F)ccc(OCC(F)F)c2CC1F (stereo not drawn) [Compound 221] | –
11 | > 1000 | – | FC(F)COc1ccc(C(F)(F)F)c2c1CC(F)(F)C2F (stereo not drawn) [Compound 214] | –
12 | – | 50 to 249 | CS(=O)(=O)c1ccc(OC2CCC2)c2c1[C@H](O)C(F)(F)[C@@H]2F [Compound 281] | –
13 | < 50 | – | CS(=O)(=O)c1ccc(OCC2CC(F)(F)C2)c2c1[C@H](O)C(F)(F)[C@@H]2F [Compound 287] | –
14 | – | < 50 | CS(=O)(=O)c1ccc(O[C@H]2C[C@H](F)C2)c2c1[C@H](O)C(F)(F)[C@@H]2F [Compound 261] | –
15 | – | < 50 | COC[C@@H](C)Oc1ccc(S(=O)(=O)C(F)(F)F)c2c1CC(F)(F)[C@H]2O [Compound 184] | –
16 | – | < 50 | CC1CC(Oc2ccc(S(=O)(=O)C(F)(F)F)c3c2CC(F)(F)C3O)CCO1 (stereo not drawn) [Compound 148] | –
17 | – | < 50 | O[C@H]1c2c(C(F)(F)F)ccc(OC3CC(F)(F)C3)c2CC1(F)F [Compound 109] | EC50 (786-O cells): < 50 nM
18 | 50 to 249 | – | CCOc1ccc(S(=O)(=O)C(F)(F)F)c2c1CC(F)(F)C2O (stereo not drawn) [Compound 113] | –
